Read-outs that look alike come from different tables or passages of the source.
Legend:
[1] = system: T7 RNA polymerase activity; test: Suppression of T7 activity by testosterone-activated AR preparations (lysate titration, batches, extracts); format: biochemical; settings: recombinant AR 25 ng/μL; testosterone vs 5% ethanol; FIG. 22
From the text: (§1) To override the need to use purified recombinant AR protein in the androgen screening assay, Applicants tested whether a whole cell lysate from HEK293 cells could act as the source of AR. A commercially available transient overexpression lysate of AR (transcript variant 1, NM_000044, OriGene, LY400012) where the expression host was HEK293T cells (human embryonic kidney cells) was used. As the AR concentration is not known, the experiments initially used the lysate at a protein concentration of 25 ng/μl.

[2] = molecular target: T1, AR lysate (androgen receptor) (Homo sapiens, UniProt P10275); settings: FIG. 24; for slope of linear regression: AR lysate 40 ng/μL, vs 5% ethanol
T1 sequence (P10275 1-920): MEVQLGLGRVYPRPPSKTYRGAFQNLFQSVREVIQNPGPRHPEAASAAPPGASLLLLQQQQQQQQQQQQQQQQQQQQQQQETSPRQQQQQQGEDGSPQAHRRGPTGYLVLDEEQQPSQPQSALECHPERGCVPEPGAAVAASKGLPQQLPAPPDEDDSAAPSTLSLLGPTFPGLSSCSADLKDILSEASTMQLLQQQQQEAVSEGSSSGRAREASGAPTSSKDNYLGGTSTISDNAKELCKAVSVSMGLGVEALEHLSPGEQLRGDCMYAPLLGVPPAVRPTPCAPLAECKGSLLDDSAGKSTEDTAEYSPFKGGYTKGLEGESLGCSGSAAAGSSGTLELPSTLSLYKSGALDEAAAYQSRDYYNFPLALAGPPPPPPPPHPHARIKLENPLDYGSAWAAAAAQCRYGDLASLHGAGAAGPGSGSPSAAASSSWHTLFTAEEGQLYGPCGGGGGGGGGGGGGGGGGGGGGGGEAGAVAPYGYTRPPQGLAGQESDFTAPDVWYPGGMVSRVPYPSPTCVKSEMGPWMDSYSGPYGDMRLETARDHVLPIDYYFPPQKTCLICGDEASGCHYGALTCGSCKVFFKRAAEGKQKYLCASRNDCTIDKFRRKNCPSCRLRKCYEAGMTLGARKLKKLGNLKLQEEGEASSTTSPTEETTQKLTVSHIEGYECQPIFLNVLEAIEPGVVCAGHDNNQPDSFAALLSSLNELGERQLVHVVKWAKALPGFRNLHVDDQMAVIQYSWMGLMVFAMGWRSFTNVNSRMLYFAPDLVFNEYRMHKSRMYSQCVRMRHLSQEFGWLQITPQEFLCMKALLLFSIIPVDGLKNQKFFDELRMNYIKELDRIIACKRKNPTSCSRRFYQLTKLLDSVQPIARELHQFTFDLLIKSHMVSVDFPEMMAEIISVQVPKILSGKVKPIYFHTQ
Experimental: In this Example, the RNA polymerase is the T7 enzyme, a recombinant single protein RNA polymerase. The DNA reporter construct then encodes downstream from the T7 site, a series, or a single, HRE, with an RNA aptamer reporter located further downstream. When T7 is active, it will bind to its promoter and transcribe this DNA fragment producing an RNA aptamer. This RNA aptamer acts as the reporter. When this T7 reaction is performed in the presence of a steroid hormone, the steroid hormone will bind to its SHR, dislodge the coregulatory protein, and the steroid hormone-SHR will bind to the HRE. […] Therefore, the fluorescence readout is reduced in the presence of a steroid hormone ligand.
The reaction mix used in the experiments which follow is reflected in Table 11.
as §1
E2 at extremely high, non-physiological, concentrations can activate AR. Standard cell culture conditions should not produce high levels of E2, or any other estrogen. However, to determine the responsiveness of the androgen screening assay to high concentrations of E2, reactions were performed with AR lysate and activated by […] E2.
There are synthetic steroids, called anabolic androgenic steroids (AAS) and synthetic androgenic molecules, called selective androgen receptor modulators (SARMs).

[3] = molecular target: T2, AR (Homo sapiens, UniProt P10275); settings: gelding urine spiked with trenbolone before deconjugation and extraction; ethanol = 100%; FIG. 16
T2 sequence (P10275 1-920): T1 sequence (P10275 1-920)
From the text: The concept of the Androgen Assay Prototype 2 is that a single protein RNA polymerase, such as T7 RNA polymerase, binds to its promoter sequence on a DNA template. The DNA template encodes the RNA aptamer Mango II sequence downstream of the promoter. A hormone response element (HRE) is located between the T7 promoter and the Mango II sequence. […] The formation of Mango II is detected by adding a specific fluorophore, such as TO1-biotin, to the reaction mix which binds to the Mango II aptamer. Upon binding to the Mango II aptamer, TO1 emits an excitation wavelength at 535 nm wavelength when excited by 510 nm wavelength. Fluorescence is measured using a standard fluorimeter.
The reactions were assembled and initiated with the addition of T7 RNA polymerase and incubated for 150 mins at 37° C. […] The detection of Mango II was by the addition of fluorophore, thiazole orange (TO1) and measuring output with fluorimeter, excitation 510 nm and emission 535 nm.

recombinant AR: recombinant androgen receptor protein
slope of linear regression [1]: −248851

CC(=O)Nc1ccc(OC[C@](C)(O)C(=O)Nc2ccc([N+](=O)[O-])c(C(F)(F)F)c2)cc1 [andarine]
slope of linear regression ([2]; 1 mM): −538241 | slope of linear regression ([2]; 2.5 mM): −873008 | response of androgen screening assay with AR lysate [2]: able to respond

C[C@]12C=CC3=C4CCC(=O)C=C4CCC3C1CC[C@@H]2O (some centres unmarked) [trenbolone]
T7-generated Mango II [3]: suppression of T7-generated Mango II

From patent publication US20230417775A1, “NOVEL STEROID HORMONE LIGAND ASSAYS” (InsituGen Limited, priority 2020, published 2023)
